Measured values as given in BindingDB's records for doi:10.1021/jm8008647 (Ewha Womans University, 2008).

Molecular target: T1, Adenosine receptor A3 (Rattus norvegicus, UniProt P28647)
T1 sequence (P28647 whole entry): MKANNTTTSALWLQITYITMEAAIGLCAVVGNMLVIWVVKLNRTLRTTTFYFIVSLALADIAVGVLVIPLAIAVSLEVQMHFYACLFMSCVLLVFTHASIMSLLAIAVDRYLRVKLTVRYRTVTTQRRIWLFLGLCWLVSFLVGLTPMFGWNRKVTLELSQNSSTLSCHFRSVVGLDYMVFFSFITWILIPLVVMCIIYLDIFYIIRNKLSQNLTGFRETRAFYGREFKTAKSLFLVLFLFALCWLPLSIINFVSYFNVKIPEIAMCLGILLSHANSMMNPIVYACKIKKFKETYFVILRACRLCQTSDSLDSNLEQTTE
Assay: Displacement of [125I]I-AB-MECA from rat adenosine A3 receptor expressed in CHO cells

O[C@@H]1[C@H](O)CS[C@H]1n1cnc2c(NCc3cccc(I)c3)ncnc21 [(2R,3R,4S)-2-(6-(3-Iodobenzylamino)-9H-purin-9-yl)-tetrahydrothiophene-3,4-diol]
Ki: 48 nM
